According to the supplement of paper PMC9265050, “Inhibition of RNA Binding in SND1 Increases the Levels of miR-1-3p and Sensitizes Cancer Cells to Navitoclax” (Cancers, 2022):

Tested on: SW480
Assay: drug sensitivity score (DSS, integrated dose-response area); higher = more sensitive (stronger viability reduction); extreme values may be limits of the assay
In short: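 Viability of induced SW480 cells carrying control or SND1-targeting shRNA was read by CellTiter-Glo 72 h after plating at 1000 cells per well onto 384-well plates holding 525 small-molecule inhibitors at five concentrations. Induction used 0.1 µg/mL doxycycline for 7 days. Each drug sensitivity score integrates the area under a fitted non-linear dose–response model.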

[1] = shRNA: SND1 shRNA1 (SND1 silenced)
[2] = shRNA: SND1 shRNA2 (SND1 silenced)
[3] = shRNA: control shRNA (non-targeting)

| Structure (SMILES) | drug sensitivity score [1] [DSS] | drug sensitivity score [2] [DSS] | drug sensitivity score [3] [DSS] |
| --- | --- | --- | --- |
| Nc1ncn([C@@H]2O[C@H](CO)[C@@H](O)[C@H]2O)c(=O)n1 [Azacitidine] | 3.7 | 4.4 | 2.9 |
| CC(C)[C@H]1C(=O)N[C@@H](CCCNC(=N)N)C(=O)NCC(=O)N[C@@H](CC(=O)O)C(=O)N[C@H](Cc2ccccc2)C(=O)N1C [Cilengitide] | 0 | 0 | 0 |
| COc1cc2ncnc(Oc3cccc(NC(=O)Nc4cc(C(C)(C)C(F)(F)F)on4)c3)c2cc1OC | 4.5 | 0 | 4.2 |
| CC(=O)O[C@@]12CO[C@@H]1C[C@H](O)[C@@]1(C)C(=O)[C@H](O)C3=C(C)[C@@H](OC(=O)[C@H](O)[C@@H](NC(=O)OC(C)(C)C)c4ccccc4)C[C@@](O)([C@@H](OC(=O)c4ccccc4)[C@H]21)C3(C)C [Docetaxel] | 18.1 | 16.5 | 19 |
| C[C@]12CC[C@@H]3c4ccc(O)cc4C[C@@H](CCCCCCCCC[S+]([O-])CCCC(F)(F)C(F)(F)F)[C@H]3[C@@H]1CC[C@@H]2O (stereo not given in full) [Fulvestrant] | 0 | 0 | 1.3 |
| COc1ccc(C[C@H](NC(=O)[C@H](C)NC(=O)CN2CCOCC2)C(=O)N[C@@H](Cc2ccccc2)C(=O)C2(C)CO2)cc1 (stereo in doubt) [ONX-0914] | 12.9 | 12.6 | 15.4 |
| C[C@]12CC[C@H](O)CC1=CC[C@@H]1[C@@H]2CC[C@]2(C)C(c3cccnc3)=CC[C@@H]12 [Abiraterone] | 0 | 0 | 0 |
| CC(C)N(CCCNC(=O)Nc1ccc(C(C)(C)C)cc1)C[C@H]1O[C@@H](n2cc(Br)c3c(N)ncnc32)[C@H](O)[C@@H]1O [SGC0946] | 4.6 | 1.3 | 4.3 |
| Cn1nnc2c(C(N)=O)ncn2c1=O [Temozolomide] | 0 | 5.2 | 2.4 |
| CCC1(c2ccc(N)cc2)CCC(=O)NC1=O (stereo not given) [Aminoglutethimide] | 0 | 0 | 0 |
| COC(=O)c1ccc2c(c1)[nH]c1ncnc(NCCCN3CCCCC3)c12 [UM729] | 1.8 | 2.8 | 3.3 |
| CC(=O)c1cnc2ccc(-c3cc(Cl)c(O)c(Cl)c3)nc2c1N[C@H]1CC[C@H](CN(C)C)CC1 [OTSSP167] | 9.8 | 8.7 | 10.6 |
| COc1cc(C(=O)O)ccc1NC(=O)[C@@H]1N[C@@H](CC(C)(C)C)[C@](C#N)(c2ccc(Cl)cc2F)[C@H]1c1cccc(Cl)c1F [Idasanutlin] | 0 | 0.3 | 0.9 |
| Cn1c(=O)c(F)c(Nc2ccc(I)cc2F)c2c(=O)n(C[C@@H](O)CO)cnc21 [TAK-733] | 21.7 | 12.2 | 12 |
| CN(C)C(=N)NC(=N)N [Metformin] | 0 |  | 1 |
| CS(=O)(=O)c1ccc(-c2cnc(N)c(C(=O)Nc3ccccc3)n2)cc1 [VE-821] | 0 |  | 0.8 |
| COc1cc([C@@H]2c3cc4c(cc3[C@@H](O[C@@H]3O[C@@H]5CO[C@@H](C)O[C@H]5[C@H](O)[C@H]3O)[C@H]3COC(=O)[C@H]23)OCO4)cc(OC)c1O [Etoposide] | 3.1 | 0.4 | 3.3 |
| Cc1ncc(-c2ccnc(Nc3ccc(S(C)(=O)=O)cc3)n2)n1C(C)C [AZD-5438] | 11.8 |  | 12.7 |
| CNc1nc(Nc2cn(C(C)(C)C#N)nc2C)ncc1C(F)(F)F [GNE-0877] | 1.6 | 0 | 5.8 |
| CCc1cc2c(cc1N1CCC(N3CCOCC3)CC1)C(C)(C)c1[nH]c3cc(C#N)ccc3c1C2=O [Alectinib] | 0 | 0 | 0 |
| CN1CCN(C2CCN(C(=O)Nc3cc(Oc4ccc(NC(=O)C5(C(=O)Nc6ccc(F)cc6)CC5)c(F)c4)ccn3)CC2)CC1 [Golvatinib] | 0 | 2.2 | 0 |
| COc1cc2nccc(Oc3ccc(NC(=O)Nc4cc(C)on4)c(Cl)c3)c2cc1OC [Tivozanib] | 3.8 | 3.6 | 5 |
| Cc1cnc(-c2ccccc2C(C)C)nc1NCc1ccc(-n2ccnn2)cc1 [ML323] | 0 | 1.4 | 4.4 |
| CN(C)CCN1C(=O)c2cccc3cc(N)cc(c23)C1=O [Amonafide] | 8.8 | 5.2 | 7.8 |

| Structure (SMILES) | drug sensitivity score [1] [DSS] | drug sensitivity score [2] [DSS] | drug sensitivity score [3] [DSS] |
| --- | --- | --- | --- |
| CCn1c(=O)c(-c2ccc(Cl)cc2Cl)cc2cnc(Nc3ccc(N4CCNCC4)c(F)c3)nc21 [FRAX486] | 5 | 4.8 | 8.5 |
| C=CCN(/C=C1/C(=O)O[C@H](COC)[C@@]2(C)C1=C(O)C(=O)C1=C2[C@H](OC(C)=O)C[C@]2(C)C(=O)CC[C@@H]12)CC=C [Sonolisib] | 0 | 0.3 | 2.1 |
| Cn1ncc(Cl)c1-c1cc(C(=O)N[C@H](CN)Cc2cccc(F)c2)sc1Cl [Afuresertib] | 0 | 2 | 0 |
| Nc1ccn([C@@H]2O[C@H](CO)[C@@H](O)C2(F)F)c(=O)n1 [Gemcitabine] | 15.8 | 6.1 | 13.4 |
| C[C@H](Nc1ncnc2nc[nH]c12)c1cc2cccc(Cl)c2c(=O)n1-c1ccccc1 [Duvelisib] | 0.6 | 3 | 5.5 |
| CN(C)C(=O)c1ccc(S(=O)(=O)c2ccc(NC(=O)[C@@](C)(O)C(F)(F)F)c(Cl)c2)cc1 [AZD7545] | 0 | 2.4 | 0 |
| CC(C)C[C@H](NC(=O)[C@H](Cc1ccccc1)NC(=O)c1cnccn1)B(O)O [Bortezomib] | 28.8 | 28.1 | 28.7 |
| N#Cc1ccc(C(c2ccc(C#N)cc2)n2cncn2)cc1 [Letrozole] | 0 | 0 | 0.1 |
| O=C(O)c1ccc(-c2c[nH]c3ncc(-c4ccccc4)cc23)cc1C1CCCC1 | 1.9 | 3.3 | 3.4 |
| C[C@@H]1COC(Nc2ccc3ncnc(Nc4ccc(OCc5nccs5)c(Cl)c4)c3c2)=N1 [Varlitinib] | 0.4 | 1.2 | 3.5 |
| O=P1(NCCCl)OCCCN1CCCl (stereo not given) [Ifosfamide] | 0 | 0 | 0 |
| CN(Cc1cnc2nc(N)nc(N)c2n1)c1ccc(C(=O)N[C@@H](CCC(=O)O)C(=O)O)cc1 [Methotrexate] | 11.7 |  | 7.4 |
| FC(F)(F)c1ccc(CNc2ccc(Cc3c[nH]c4ncc(Cl)cc34)cn2)cn1 [Pexidartinib] | 0.3 | 0.8 | 0.7 |
| CCCCCCCCCCCCCCCCCCOP(=O)([O-])OC1CC[N+](C)(C)CC1 [Perifosine] | 2.3 |  | 3.7 |
| COc1cc([C@@H]2c3cc4c(cc3[C@@H](O[C@@H]3O[C@@H]5CO[C@@H](c6cccs6)O[C@H]5[C@H](O)[C@H]3O)[C@H]3COC(=O)[C@H]23)OCO4)cc(OC)c1O [Teniposide] | 9.1 | 6 | 7.8 |
| Nc1ncnc2c1nc(Cl)n2[C@@H]1O[C@H](CO)[C@@H](O)[C@H]1O [8-chloro-adenosine] | 13.5 | 13.3 | 11.3 |
| CC(C)NC[C@@H](C(=O)N1CCN(c2ncnc3c2[C@H](C)C[C@H]3O)CC1)c1ccc(Cl)cc1 [Ipatasertib] | 3.5 | 9.7 | 5.9 |
| O=C(Nc1ccncc1)C(=O)c1cn(Cc2ccc(Cl)cc2)c2ccccc12 [Indibulin] | 8.8 | 7.7 | 8.8 |
| Cn1cc(-c2ccc3nnc(C(F)(F)c4ccc5ncccc5c4)n3n2)cn1 | 0 | 0 | 1.3 |
| CO[C@H]1C[C@@H]2CC[C@@H](C)[C@@](O)(O2)C(=O)C(=O)N2CCCC[C@H]2C(=O)O[C@H]([C@H](C)C[C@@H]2CC[C@@H](OC(=O)C(C)(CO)CO)[C@H](OC)C2)CC(=O)[C@H](C)/C=C(\C)[C@@H](O)[C@@H](OC)C(=O)[C@H](C)C[C@H](C)/C=C/C=C/C=C/1C [Temsirolimus] | 11.9 |  | 9.5 |
| CNC(=O)c1ccc2cc([C@@]3(O)CCn4cncc43)ccc2c1 [Orteronel] | 0 | 0 | 0 |
| Cn1ncc(Cl)c1-c1cc(C(=O)N[C@H](CN)Cc2ccc(F)c(F)c2)oc1Cl [Uprosertib] | 0 | 0.3 | 0.2 |
| CC[C@@H]1C(=O)N(C)c2cnc(Nc3ccc(C(=O)N[C@H]4CC[C@H](N5CCN(CC6CC6)CC5)CC4)cc3OC)nc2N1C(C)C [Volasertib] | 13.1 | 14.4 | 14.8 |
